Earlier results as cited in patent publication US20130095160A1, “RESORBABLE POLYSTATIN BIOMATERIALS” (priority 2011, published 2013).

Legend:
SR-BI receptor = target: T1, SR-BI receptor (Homo sapiens, UniProt Q8WTV0); conditions: via activation of the SR-BI receptor
T1 sequence (Q8WTV0 1-552): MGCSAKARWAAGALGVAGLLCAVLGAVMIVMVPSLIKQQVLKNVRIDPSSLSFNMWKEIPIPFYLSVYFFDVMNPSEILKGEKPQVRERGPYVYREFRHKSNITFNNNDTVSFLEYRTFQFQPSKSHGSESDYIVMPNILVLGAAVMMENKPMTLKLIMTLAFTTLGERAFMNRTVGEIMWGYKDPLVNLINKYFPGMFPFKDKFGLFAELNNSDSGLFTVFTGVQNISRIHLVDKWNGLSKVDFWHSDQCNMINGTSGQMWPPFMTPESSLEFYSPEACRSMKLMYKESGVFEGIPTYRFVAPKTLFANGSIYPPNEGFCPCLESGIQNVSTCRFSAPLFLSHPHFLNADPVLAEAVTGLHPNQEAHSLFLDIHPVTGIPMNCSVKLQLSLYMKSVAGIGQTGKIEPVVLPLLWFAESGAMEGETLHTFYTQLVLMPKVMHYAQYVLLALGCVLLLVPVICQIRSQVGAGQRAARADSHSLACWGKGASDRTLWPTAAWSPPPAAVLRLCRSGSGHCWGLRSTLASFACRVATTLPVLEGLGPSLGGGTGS

eNOS = conditions: 12 mg (or 10(−5) M lovastatin); previously shown

## CC[C@H](C)C(=O)O[C@H]1C[C@@H](C)C=C2C=C[C@H](C)[C@H](CC[C@@H]3C[C@@H](O)CC(=O)O3)[C@H]21 [lovastatin]
SR-BI receptor
  efficiency at generating EDNO compared with HDL: more efficient than HDL
eNOS
  eNOS activation in vitro: maximally effective
